Source: EP3095787A1, “[…] ACTIVE COMPOUNDS AS DAG-LIPASE INHIBITORS” (Universiteit Leiden, priority 2015, dated 2016)

target: T1, FAAH (Mus musculus, UniProt O08914); assay: Gel based competitive ABPP selectivity assay with TAMRA-FP in mouse brain proteome (FAAH band); type: biochemical; details: 10 µM inhibitor; TAMRA-FP 500 nM; mouse brain proteome; vehicle set to 100%
T1 construct: For gel based ABPP experiments mouse brain proteome (2.0 mg/mL, 20 µL) was preincubated; from tissue; host or cells: mouse brain proteome
T1 sequence (O08914 1-579): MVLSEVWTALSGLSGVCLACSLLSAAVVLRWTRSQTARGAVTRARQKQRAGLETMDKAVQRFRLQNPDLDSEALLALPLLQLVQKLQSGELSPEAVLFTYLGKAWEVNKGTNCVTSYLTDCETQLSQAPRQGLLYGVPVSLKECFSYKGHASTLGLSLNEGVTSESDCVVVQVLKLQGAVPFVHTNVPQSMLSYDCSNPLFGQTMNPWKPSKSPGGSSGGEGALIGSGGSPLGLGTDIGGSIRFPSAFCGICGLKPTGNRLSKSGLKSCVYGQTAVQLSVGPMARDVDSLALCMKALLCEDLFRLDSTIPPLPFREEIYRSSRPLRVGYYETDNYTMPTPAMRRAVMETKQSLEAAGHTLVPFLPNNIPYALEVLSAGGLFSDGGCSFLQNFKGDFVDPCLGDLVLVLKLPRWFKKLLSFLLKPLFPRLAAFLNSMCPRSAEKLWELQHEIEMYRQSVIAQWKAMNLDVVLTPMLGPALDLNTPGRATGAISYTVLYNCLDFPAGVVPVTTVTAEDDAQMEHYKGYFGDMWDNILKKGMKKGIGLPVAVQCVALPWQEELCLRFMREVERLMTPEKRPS
Method: For gel based ABPP experiments mouse brain proteome (2.0 mg/mL, 20 µL) was preincubated for 30 min with vehicle (DMSO) or compound to be tested in 0.5 µL DMSO at rt. And subsequently treated with 500 nM (final concentration) TAMRA-FP (TAMRA-FP was bought at Thermo Fischer) for 15 minutes at rt. The reactions were quenched with 10 µL standard 3 x SDS page sample buffer. The samples were directly loaded and resolved on SDS page gel (10 % acrylamide). The gels were scanned with a ChemiDoc MP sytem (Biorad, Cy 3 settings, 605/50 filter) and analyzed using Image Lab 4.1.
The percentage effect on FAAH was determined by measuring the integrated optical intensity of the band corresponding to FAAH (∼ 63 kD for mouse) using Image lab software. This activity was corrected for the total protein loading per lane as determined by coomassie staining and imaging with a ChemiDoc™ MP sytem (Biorad) followed by determination of the integrated optical intensity per lane by using Image Lab 4.1 software. The intensity of the protein bands from the samples treated with vehicle was set to 100%. […] N/A means less than 50% probe displacement at 10 µM inhibitor concentration.

Row | SMILES | FAAH ABPP (10 µm) % Eff.
1 | O=C(CCCCCc1ccccc1)c1nc2ncc(-c3ccc(F)cc3)cc2o1 [Compound 58, 1-(6-(4-fluorophenyl)oxazolo[4,5-b]pyridin-2-yl)-6-phenylhexan-1-one] | N/A (N/A means less than 50% probe displacement at 10 µM inhibitor concentration)
2 | Cc1ccccc1-c1cnc2nc(C(=O)CCCCCc3ccccc3)oc2c1 [Compound 54, 6-phenyl-1-(6-(o-tolyl)oxazolo[4,5-b]pyridin-2-yl)hexan-1-one] | N/A (N/A means less than 50% probe displacement at 10 µM inhibitor concentration)
3 | Cc1ccc(-c2cnc3nc(C(=O)Cc4ccccc4)oc3c2)cc1 [Compound 34, 2-phenyl-1-(6-(p-tolyl)oxazolo[4,5-b]pyridin-2-yl)ethan-1-one] | N/A (N/A means less than 50% probe displacement at 10 µM inhibitor concentration)
4 | Cc1ccc(-c2cnc3nc(C(=O)CCCCC(F)(F)F)oc3c2)cc1 [Compound 43, 6,6,6-trifluoro-1-(6-(p-tolyl)oxazolo[4,5-b]pyridin-2-yl)hexan-1-one] | N/A (N/A means less than 50% probe displacement at 10 µM inhibitor concentration)
5 | Cn1cccc1-c1cnc2nc(C(=O)CCCCCc3ccccc3)oc2c1 [Compound 46, 1-(6-(1-methyl-1H-pyrrol-2-yl)oxazolo[4,5-b]pyridin-2-yl)-6-phenylhexan-1-one] | N/A (N/A means less than 50% probe displacement at 10 µM inhibitor concentration)
6 | O=C(CCCCCc1ccccc1)c1nc2ncc(-c3nnn[nH]3)cc2o1 [Compound 45, 1-(6-(1H-tetrazol-5-yl)oxazolo[4,5-b]pyridin-2-yl)-6-phenylhexan-1-one] | N/A (N/A means less than 50% probe displacement at 10 µM inhibitor concentration)
7 | O=C(CCCCCc1ccccc1)c1nc2ncc(-c3ccccc3F)cc2o1 [Compound 57, 1-(6-(2-fluorophenyl)oxazolo[4,5-b]pyridin-2-yl)-6-phenylhexan-1-one] | N/A (N/A means less than 50% probe displacement at 10 µM inhibitor concentration)
8 | O=C(CCCCCc1ccccc1)c1nc2ncc(-c3cccc(Cl)c3)cc2o1 [Compound 39, 1-(6-(3-chlorophenyl)oxazolo[4,5-b]pyridin-2-yl)-6-phenylhexan-1-one] | N/A (N/A means less than 50% probe displacement at 10 µM inhibitor concentration)
9 | N#Cc1ccc(-c2cnc3nc(C(=O)CCCCCc4ccccc4)oc3c2)cc1 [Compound 51, 4-(2-(6-phenylhexanoyl)oxazolo[4,5-b]pyridin-6-yl)benzonitrile] | N/A (N/A means less than 50% probe displacement at 10 µM inhibitor concentration)
10 | O=C(CCCCCc1ccccc1)c1nc2ncc(-c3cccs3)cc2o1 [Compound 44, 6-phenyl-1-(6-(thiophen-2-yl)oxazolo[4,5-b]pyridin-2-yl)hexan-1-one] | N/A (N/A means less than 50% probe displacement at 10 µM inhibitor concentration)
11 | O=C(CCCCCc1ccccc1)c1nc2ncc(-c3ccc(Cl)cc3)cc2o1 [Compound 40, 1-(6-(4-chlorophenyl)oxazolo[4,5-b]pyridin-2-yl)-6-phenylhexan-1-one] | N/A (N/A means less than 50% probe displacement at 10 µM inhibitor concentration)
12 | Cc1ccc(-c2cnc3nc(C(=O)CCCc4ccccc4)oc3c2)cc1 [Compound 36, 4-phenyl-1-(6-(p-tolyl)oxazolo[4,5-b]pyridin-2-yl)butan-1-one] | N/A (N/A means less than 50% probe displacement at 10 µM inhibitor concentration)
13 | O=C(CCCCCc1ccccc1)c1nc2ncc(-c3ccncc3)cc2o1 [Compound 37, 6-phenyl-1-(6-(pyridin-4-yl)oxazolo[4,5-b]pyridin-2-yl)hexan-1-one] | N/A (N/A means less than 50% probe displacement at 10 µM inhibitor concentration)
14 | Cc1ccccc1-c1cnc2nc(C(=O)CCCCCc3ccc(F)cc3)oc2c1 [Compound 47, 6-(4-fluorophenyl)-1-(6-(o-tolyl)oxazolo[4,5-b]pyridin-2-yl)hexan-1-one] | N/A (N/A means less than 50% probe displacement at 10 µM inhibitor concentration)
15 | O=C(CCCCCc1ccccc1)c1nc2ncc(-c3cccc(F)c3)cc2o1 [Compound 52, 1-(6-(3-fluorophenyl)oxazolo[4,5-b]pyridin-2-yl)-6-phenylhexan-1-one] | N/A (N/A means less than 50% probe displacement at 10 µM inhibitor concentration)
16 | Cc1ccc(-c2cnc3nc(C(=O)CCc4ccccc4)oc3c2)cc1 [Compound 35, 3-phenyl-1-(6-(p-tolyl)oxazolo[4,5-b]pyridin-2-yl)propan-1-one] | N/A (N/A means less than 50% probe displacement at 10 µM inhibitor concentration)
17 | Cc1ccccc1-c1cnc2nc(C(=O)CCCCOc3ccc(F)cc3)oc2c1 [Compound 49, 5-(4-fluorophenoxy)-1-(6-(o-tolyl)oxazolo[4,5-b]pyridin-2-yl)pentan-1-one] | N/A (N/A means less than 50% probe displacement at 10 µM inhibitor concentration)
18 | COc1ccc(-c2cnc3nc(C(=O)CCCCCc4ccccc4)oc3c2)cc1 [Compound 41, 1-(6-(4-methoxyphenyl)oxazolo[4,5-b]pyridin-2-yl)-6-phenylhexan-1-one] | N/A (N/A means less than 50% probe displacement at 10 µM inhibitor concentration)
19 | Cc1cccc(C)c1-c1cnc2nc(C(=O)CCCCCc3ccccc3)oc2c1 [Compound 50, 1-(6-(2,6-dimethylphenyl)oxazolo[4,5-b]pyridin-2-yl)-6-phenylhexan-1-one] | N/A (N/A means less than 50% probe displacement at 10 µM inhibitor concentration)
20 | O=C(CCCCCc1ccccc1)c1nc2ncc(-c3ccccn3)cc2o1 [Compound 53, 6-phenyl-1-(6-(pyridin-2-yl)oxazolo[4,5-b]pyridin-2-yl)hexan-1-one] | N/A (N/A means less than 50% probe displacement at 10 µM inhibitor concentration)
21 | Cc1cccc(-c2cnc3nc(C(=O)CCCCCc4ccccc4)oc3c2)c1 [Compound 55, 6-phenyl-1-(6-(m-tolyl)oxazolo[4,5-b]pyridin-2-yl)hexan-1-one] | N/A (N/A means less than 50% probe displacement at 10 µM inhibitor concentration)
22 | O=C(CCCCCc1ccccc1)c1nc2ncc(-c3ccccc3Cl)cc2o1 [Compound 38, 1-(6-(2-chlorophenyl)oxazolo[4,5-b]pyridin-2-yl)-6-phenylhexan-1-one] | N/A (N/A means less than 50% probe displacement at 10 µM inhibitor concentration)
23 | Cc1ccc(-c2cnc3nc(C(=O)CCC(F)(F)F)oc3c2)cc1 [Compound 42, 4,4,4-trifluoro-1-(6-(p-tolyl)oxazolo[4,5-b]pyridin-2-yl)butan-1-one] | N/A (N/A means less than 50% probe displacement at 10 µM inhibitor concentration)
24 | O=C(CCCCCc1ccncc1)c1nc2ncc(-c3ccccc3F)cc2o1 [Compound 48, 1-(6-(2-fluorophenyl)oxazolo[4,5-b]pyridin-2-yl)-6-(pyridin-4-yl)hexan-1-one] | N/A (N/A means less than 50% probe displacement at 10 µM inhibitor concentration)
